According to publication PMC8950477 (Pharmaceuticals, 2022):
Read-outs that look alike come from different tables or passages of the source.

Tests used:
K562 cells = assay: K562 cell viability assay (resazurin); format: cell-based, human; settings: for CC50: Homo sapiens, K562 cells, concentration-response curve
Method: The assays were performed on two cell lines, as described below. […] The K562 strain was grown in RPMI-1640 medium (R8758, Sigma-Aldrich, St. Louis, MO, USA) according to the provider’s recommendations and the literature [27, 28]. […] The media were supplemented with 10% fetal bovine serum (FBS) and 50 μg/mL gentamicin. All cell lines were grown in a cell culture bottle with a 0.22 μm pore membrane filter on the lid, allowing the circulation of CO2. […] All strains were maintained at 35 °C, at 5% CO2.
For the evaluation of the cytotoxic actions of the synthesized compounds, resazurin (Sigma-Aldrich) was used at a concentration of 0.1 mg/mL.
Standardization of this assay was not carried out in this project; thus, the following ideal values were used for the execution of the experiment: quantity of cells of 2 × 10^4 cell/mL, incubation time with the compounds of 48 h, incubation time with resazurin of one hour and DMSO used within the limit of 0.5%. As the cells grew in suspension, a long incubation period for adherence was not necessary. After plating, the cells were incubated for one hour, and then the prepared compounds were added and incubated for 47 h. After this period, resazurin was added at a final concentration per well of 0.01 mg/mL, and the first fluorescence reading (λex = 560 nm; λex = 590 nm) (zero time) was performed immediately using FlexStation 3 microplates (Molecular Devices). After the first reading, the plate was returned to the incubator, and after one hour, the second reading was performed, completing 48 h of incubation with the compounds. The compounds were solubilized in DMSO (Sigma-Aldrich) at concentrations ranging from 16.66 to 50 mM and maintained at −30 °C.
Analyses of the data obtained and graph construction were performed with the aid of GraphPad Prism 6 software (GraphPad Software Inc., San Diego, CA, USA).

[1] = WSS-1 cell viability assay (resazurin); format: cell-based; settings: human, WSS-1 cells (renal epithelium, adenovirus 5 transformed), concentration-response curve
Method: The assays were performed on two cell lines, as described below. […] WSS-1 (ATCC® CRL2029 ™): the cells used in this work were a healthy human cell line obtained from the renal epithelium of a fetus and transformed with adenovirus 5 DNA (ATCC: The Global Bioresource Center c). […] WSS-1 cells were cultured in high-glucose DMEM (Vitrocell) according to the provider’s recommendations (ATCC: The Global Bioresource Center c). The media were supplemented with 10% fetal bovine serum (FBS) and 50 μg/mL gentamicin. All cell lines were grown in a cell culture bottle with a 0.22 μm pore membrane filter on the lid, allowing the circulation of CO2. WSS-1 cells grew adherently, while cells of the K562 strain grew in suspension. All strains were maintained at 35 °C, at 5% CO2. In addition, all cell lines were routinely evaluated before freezing for storage in liquid nitrogen in the vapor phase for the detection of mycoplasma.
For the evaluation of the cytotoxic actions of the synthesized compounds, resazurin (Sigma-Aldrich) was used at a concentration of 0.1 mg/mL. The resazurin salt (Alamar Blue®) has a blue, nonfluorescent color and can be reduced to resorufin, which is pink and highly fluorescent. This process is an indicator of cell proliferation and fluorescent/colorimetric cytotoxicity with redox properties.
The first step of this assay consisted of plating the cells, with 5 × 10^4 cells per well. In this experiment, black plates with transparent bottoms and 96 wells (Greiner Bio-One) were used, and after plating, the cells were returned to the incubator for a period of approximately 20 h to allow growth and cell adhesion. The next step consisted of adding the obtained compounds, followed by incubation for a period of 46 h. Then, resazurin was added at a final concentration per well of 0.01 mg/mL, and immediately, the first fluorescence reading (λex = 560 nm; λex = 590 nm) (zero time) was performed using a FlexStation 3 microplate reader (Molecular Devices). After the first reading, the plate was returned to the incubator, and after two hours, the second reading was performed, completing 48 h of incubation with the compounds. As a negative control, cells treated with DMSO at a concentration of 0.5% instead of the obtained compounds were used. […] Preliminary screening of the compounds was carried out at fixed concentrations (1 and 10 μM) in triplicate. […] It should be noted that each experiment was carried out at least in duplicate. The fluorescence value at time zero (time immediately after the addition of resazurin) in each well was subtracted from the values obtained after two hours of incubation with resazurin. The average value with zero-time subtraction was used as 100% cell viability and was applied to calculate the percentage of cell viability in each well. […]

[2] = Solubility observed during concentration-response curve; format: physicochemical; settings: in the cell assay concentration-response curve
Method: Subsequently, a concentration-response curve was constructed for compounds 2g and 2h.

[3] = 48 h incubation, resazurin, read-out: CC50 K562
[4] = unit inferred, read-out: CC50 K562 (Figure 5)
[5] = WSS-1 cells, unit inferred, read-out: CC50 WSS1 (Figure 5)
[6] = WSS-1 healthy cells, 48 h incubation, resazurin, read-out: CC50 WSS-1

| Structure (SMILES) | melting point [°C] | CC50 (K562 cells; [3]) [µM] | further results |
| --- | --- | --- | --- |
| CCOC(=O)c1cnc2ccccc2c1Nc1ccc(C)c(Nc2nccc(-c3cccnc3)n2)c1 [2e, Ethyl 4-((4-methyl-3-((4-(pyridin-3-yl)pyrimidin-2-yl)amino)phenyl)amino)quinoline-3-carboxylate] | 208 to 211 | – | – |
| Cc1ccc(Nc2ccnc3ccccc23)cc1Nc1nccc(-c2cccnc2)n1 [2g, 4-Methyl-N^3-(4-(pyridin-3-yl)pyrimidin-2-yl)-N^1-(quinolin-4-yl)benzene-1,3-diamine] | 153 to 157 | 0.9 | CC50 (K562 cells; [4]): 0.874 µM; percentage of cell viability inhibition (K562 cells; K562 screening at 10 µM (Figure 4)): higher percentage of cell viability inhibition than IMT and BST; CC50 at 48 h [1, 5]: 0.215 µM; CC50 at 48 h [1, 6]: 0.2 µM |
| Cc1ccc(Nc2ccc3cccc(Cl)c3n2)cc1Nc1nccc(-c2cccnc2)n1 [2h, N^1-(8-Chloroquinolin-2-yl)-4-methyl-N^3-(4-(pyridin-3-yl)pyrimidin-2-yl)benzene-1,3-diamine] | 237 to 239 | 6.2 | CC50 (K562 cells; [4]): 6.25 µM; CC50 at 48 h [1, 5]: 4.92 µM; CC50 at 48 h [1, 6]: 4.9 µM; solubility [2]: low solubility at concentrations above 30 μM |
| Cc1ccc(-n2cc(COc3ccnc4cc(Cl)ccc34)nn2)cc1Nc1nccc(-c2cccnc2)n1 [3a, N-(5-(4-(((7-Chloroquinolin-4-yl)oxy)methyl)-1H-1,2,3-triazol-1-yl)-2-methylphenyl)-4-(pyridin-3-yl)pyrimidin-2-amine] | 187 to 188 | – | – |
| Cc1ccc(-n2cc(CCCOc3ccnc4cc(Cl)ccc34)nn2)cc1Nc1nccc(-c2cccnc2)n1 [3b, N-(5-(4-(3-((7-Chloroquinolin-4-yl)oxy)propyl)-1H-1,2,3-triazol-1-yl)-2-methylphenyl)-4-(pyridin-3-yl)pyrimidin-2-amine] | 107 to 108 | – | – |
| Cc1ccc(NC(=O)Cn2cc(COc3ccnc4cc(Cl)ccc34)nn2)cc1Nc1nccc(-c2cccnc2)n1 [4a, 2-(4-(((7-Chloroquinolin-4-yl)oxy)methyl)-1H-1,2,3-triazol-1-yl)-N-(4-methyl-3-((4-(pyridin-3-yl)pyrimidin-2-yl)amino)phenyl)acetamide] | 245 to 247 | – | – |
| Cc1ccc(NC(=O)Cn2cc(CCCOc3ccnc4cc(Cl)ccc34)nn2)cc1Nc1nccc(-c2cccnc2)n1 [4b, 2-(4-(3-((7-Chloroquinolin-4-yl)oxy)propyl)-1H-1,2,3-triazol-1-yl)-N-(4-methyl-3-((4-(pyridin-3-yl)pyrimidin-2-yl)amino)phenyl)acetamide] | 145 to 146 | – | – |
| Cc1ccc(NC(=O)c2ccc(CN3CCN(C)CC3)cc2)cc1Nc1nccc(-c2cccnc2)n1 [IMT, Imatinib, reference compound] | – | 0.08 | – |
